Test results published in ChEMBL document CHEMBL3576773, “Studies on the ATP Binding Site of Fyn Kinase for the Identification of New Inhibitors and Their Evaluation as Potential Agents against Tauopathies and Tumors” (J Med Chem, 2015).
Values belong to the compound of their own block, whether it stands above or below them.

Assays:
[1] = target: Tyrosine-protein kinase Fyn (Homo sapiens, UniProt P06241); experiment: Inhibition of human recombinant full-length Fyn using Src substrate peptide after 15 mins incubation by MicroBeta liquid scintillation counting analysis
Tyrosine-protein kinase Fyn, sequence (P06241 whole entry): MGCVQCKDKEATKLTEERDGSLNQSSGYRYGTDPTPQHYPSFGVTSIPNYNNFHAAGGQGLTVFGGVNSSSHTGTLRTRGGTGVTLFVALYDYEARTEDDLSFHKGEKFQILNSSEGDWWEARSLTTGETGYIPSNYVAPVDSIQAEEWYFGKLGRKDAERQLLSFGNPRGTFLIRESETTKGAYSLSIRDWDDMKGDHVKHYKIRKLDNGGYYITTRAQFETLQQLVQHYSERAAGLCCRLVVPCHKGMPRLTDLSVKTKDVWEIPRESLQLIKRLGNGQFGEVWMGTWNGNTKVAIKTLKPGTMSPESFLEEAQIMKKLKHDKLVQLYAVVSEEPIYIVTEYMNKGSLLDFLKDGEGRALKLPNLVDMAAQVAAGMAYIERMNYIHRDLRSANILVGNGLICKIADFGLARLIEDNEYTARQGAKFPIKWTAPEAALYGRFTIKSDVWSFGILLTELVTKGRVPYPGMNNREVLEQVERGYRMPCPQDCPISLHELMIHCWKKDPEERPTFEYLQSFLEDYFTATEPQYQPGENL

[2] = Metabolic stability in human liver microsomes measured after 1 hr in presence of NADPH generating system; assay type: ADME; conditions: read-out: Stability
[3] = Permeability of the compound by PAMPA-LC-UV analysis; assay type: physicochemical
[4] = test system: K562; experiment: Antiproliferative activity against human K562 cells assessed as vitality after 72 hrs by automatic cell counting analysis; assay type: functional, cell-based; conditions: K562, 72 h
[5] = Permeability of the compound by BBB-PAMPA-LC-UV analysis; assay type: physicochemical
[6] = test system: Liver microsome; experiment: Drug formation in human liver microsomes treated with 1-(2-Chloro-2-phenylethyl)-3-(4-methyoxyphenyl)-1H-pyrazolo-[3,4-d]pyrimidin-4-amine measured after 1 hr by LC-UV-MS analysis; assay type: ADME
[7] = test system: Liver microsome; experiment: Drug formation in human liver microsomes treated with 1-(2-Chloro-2-phenylethyl)-3-phenyl-1H-pyrazolo[3,4-d]-pyrimidin-4-amine hydrocloride measured after 1 hr by LC-UV-MS analysis; assay type: ADME
[8] = test system: Liver microsome; experiment: Drug formation in human liver microsomes treated with 3-(4-Chlorophenyl)-1-(2-chloro-2-phenylethyl)-1H-pyrazolo[3,4-d]pyrimidin-4-amine measured after 1 hr by LC-UV-MS analysis; assay type: ADME
[9] = test system: Liver microsome; experiment: Drug formation in human liver microsomes treated with 1-(2-Chloro-2-phenylethyl)-3-(4-fluorophenyl)-1H-pyrazolo[3,4-d]pyrimidin-4-amine measured after 1 hr by LC-UV-MS analysis; assay type: ADME
[10] = test system: Liver microsome; experiment: Drug formation in human liver microsomes treated with 1-(2-Chloro-2-phenylethyl)-3-(4-methylphenyl)-1H-pyrazolo[3,4-d]pyrimidin-4-amine measured after 1 hr by LC-UV-MS analysis; assay type: ADME
[11] = Induction of apoptosis in Ph+ CML patient CD34+ early hematopoietic progenitor cells assessed as increase in apoptotic level at 2 uM after 48 hrs by Annexin V-FITC/Propidium iodide staining based FACSCalibur flow cytometry; assay type: functional, Homo sapiens
[12] = test system: MDA-MB-231; experiment: Anticancer activity against human MDA-MB-231 cells assessed as cell growth inhibition after 20 to 70 hrs by Real-time RTCA iCELLgence system; assay type: functional, cell-based
[13] = Cytotoxicity against human fibroblast at 2 uM after 48 hrs; assay type: cell-based
[14] = Anticancer activity against human U87 cells assessed as cell growth inhibition after 20 to 70 hrs by Real-time RTCA iCELLgence system; assay type: functional, cell-based, U-87MG ATCC; conditions: U-87 MG
[15] = test system: K562; experiment: Induction of apoptosis in human K562 cells assessed as accumulation of hypodiploid cells at 0.1 uM

Ki ([1]; read-out: Ki): 0.78 µM
Compound: CC(Cn1nc(-c2ccc(Cl)cc2)c2c(N)ncnc21)c1ccccc1 (stereo not drawn)

Ki [1]: Not Active
Compound: ClC(Cn1ncc2c(NCCc3ccccc3)nc(SCCN3CCOCC3)nc21)c1ccccc1 (stereo not drawn)

Ki ([1]; read-out: Ki): 2.1 µM
Compound: CCc1ccc2[nH]c(=O)c(CN(Cc3ccc4c(c3)OCO4)C(=O)Nc3ccc(F)cc3)cc2c1

remaining at 1 h [2]: 95.7% | Papp [3]: 16.5 ×10⁻⁶ cm/s | IC50 [4]: 12.6 µM | Papp [5]: 12.9 ×10⁻⁶ cm/s
Compound: Nc1ncnc2c1c(-c1ccc(F)cc1)nn2CC(Cl)c1ccccc1 (stereo not drawn)

Drug metabolism [6]: metabolite_detected | Drug metabolism [7]: metabolite_detected | Drug metabolism [8]: metabolite_detected | Drug metabolism [9]: metabolite_detected | Drug metabolism [10]: metabolite_detected
Compound: Nc1ncnc2c1c(-c1ccccc1)nn2CC(O)c1ccccc1 (stereo not drawn)

Ki [1]: Not Active
Compound: CCCCSc1nc(NCCc2ccccc2)c2cnn(CC(Cl)c3ccccc3)c2n1 (stereo not drawn)

Ki [1]: Not Active
Compound: Clc1cccc(Nc2nc(SC3CCCC3)nc3c2cnn3CC(Cl)c2ccccc2)c1 (stereo not drawn)

Ki [1]: Not Active
Compound: Fc1cccc(Nc2nc(SC3CCCC3)nc3c2cnn3CC(Cl)c2ccccc2)c1 (stereo not drawn)

Ki ([1]; read-out: Ki): 10 µM
Compound: CNc1nc(SC)nc2c1c(-c1ccccc1)nn2CCc1ccccc1

Ki [1]: Not Active
Compound: CCC(C)Sc1nc(NCc2ccccc2)c2cnn(CC(Cl)c3ccccc3)c2n1 (stereo not drawn)

Drug metabolism [6]: metabolite_detected
Compound: Nc1ncnc2c1c(-c1ccc(O)cc1)nn2CC(Cl)c1ccccc1 (stereo not drawn)

Ki ([1]; read-out: Ki): 10 µM
Compound: COC(Cn1nc(-c2ccccc2)c2c(N)nc(SC)nc21)c1ccccc1 (stereo not drawn)

Ki ([1]; read-out: Ki): 10 µM
Compound: CC(=O)c1ccc(-c2nn(CC(C)c3ccccc3)c3ncnc(N)c23)cc1 (stereo not drawn)

remaining at 1 h [2]: 95.6% | Papp [3]: 17.5 ×10⁻⁶ cm/s | Papp [5]: 14.5 ×10⁻⁶ cm/s
Compound: COc1ccc(-c2nn(CC(Cl)c3ccccc3)c3ncnc(N)c23)cc1 (stereo not drawn)

Ki [1]: Not Active
Compound: ClC(Cn1ncc2c(NCCc3ccccc3)nc(SC3CCCC3)nc21)c1ccccc1 (stereo not drawn)

remaining at 1 h [2]: 85.2% | IC50 [12]: 3.7 µM | Papp [3]: 9.9 ×10⁻⁶ cm/s | IC50 [4]: 0.56 µM | Papp [5]: 8.4 ×10⁻⁶ cm/s
Compound: Nc1ncnc2c1c(-c1ccc(Cl)cc1)nn2CC(Cl)c1ccccc1 (stereo not drawn)
Activity [11]: 35% | Activity [13]: Non-toxic | IC50 [14]: 0.074 µM

remaining at 1 h [2]: 90% | IC50 [12]: 8.3 µM | Papp [3]: 10.9 ×10⁻⁶ cm/s | IC50 [4]: 0.3 µM | Papp [5]: 11.5 ×10⁻⁶ cm/s
Compound: Cc1ccc(-c2nn(CC(Cl)c3ccccc3)c3ncnc(N)c23)cc1 (stereo not drawn)
Activity [15]: 50% | Activity [11]: 30% | Activity [13]: Non-toxic | IC50 [14]: 0.78 µM

remaining at 1 h [2]: 78.9% | Papp [3]: 12.8 ×10⁻⁶ cm/s | Papp [5]: 9.5 ×10⁻⁶ cm/s | Ki ([1]; read-out: Ki): 0.9 µM
Compound: Nc1ncnc2c1c(-c1ccccc1)nn2CC(Cl)c1ccccc1 (stereo not drawn)

Ki ([1]; read-out: Ki): 2.25 µM
Compound: CCOc1ccc(-c2[nH]ncc2CN2CCN(S(=O)(=O)N3CCCC3)CC2)cc1

Drug metabolism [6]: metabolite_detected | Drug metabolism [7]: metabolite_detected | Drug metabolism [8]: metabolite_detected | Drug metabolism [9]: metabolite_detected | Drug metabolism [10]: metabolite_detected
Compound: Nc1ncnc2c1c(-c1ccccc1)nn2CC(=O)c1ccccc1

Ki [1]: Not Active
Compound: Cc1ccc(-c2cc(-c3ccccc3)c3c(N)c(C(=O)Nc4ccc(F)cc4)sc3n2)cc1

Ki [1]: Not Active
Compound: CCC(C)Sc1nc(NCCc2ccccc2)c2cnn(CC(Cl)c3ccccc3)c2n1 (stereo not drawn)
